Results: patent US12491170B2, “Stable treprostinil prodrugs” (United Therapeutics Corporation, priority 2020, dated 2025)

How the values were obtained:
[1] = Stability in liver microsomes, human
[2] = Stability in liver microsomes, dog
[3] = Stability in cryopreserved hepatocytes, rat
[4] = Stability in human subcutaneous skin homogenate
[5] = target: prostaglandin I2 (PGI2) receptor (IP) (Homo sapiens, UniProt P43119); assay: IP receptor cAMP agonist assay (CHO-K1 cells); format: cell-based; conditions: summary of findings
Method in brief: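 Agonist-mode cAMP accumulation in cells overexpressing the human receptor (DP1 and EP2 in HEK293T, IP in CHO-K1). Compounds were added at varying concentrations with 0.1% DMSO for 20 min at 37 °C, then cAMP was read by TR-FRET. Dose-responses were fitted to variable-slope sigmoidal curves.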

prostaglandin I2 (PGI2) receptor (IP), sequence (P43119 whole entry): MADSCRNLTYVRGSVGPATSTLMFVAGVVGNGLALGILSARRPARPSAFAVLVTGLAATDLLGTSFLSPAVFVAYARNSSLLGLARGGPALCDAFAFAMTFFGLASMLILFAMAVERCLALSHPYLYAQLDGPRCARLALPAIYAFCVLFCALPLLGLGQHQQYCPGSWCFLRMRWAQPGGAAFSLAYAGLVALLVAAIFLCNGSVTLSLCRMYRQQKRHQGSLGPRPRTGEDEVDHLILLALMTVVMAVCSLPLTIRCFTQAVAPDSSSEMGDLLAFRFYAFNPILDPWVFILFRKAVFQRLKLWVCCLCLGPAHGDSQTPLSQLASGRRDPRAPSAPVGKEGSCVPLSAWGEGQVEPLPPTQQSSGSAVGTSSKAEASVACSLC

With treprostinil diacetate [Prodrug LXXII] the “Trep Concentration 0 min” value [1] was 0.989 µM, the “Trep Concentration 10 min” value [1] was 0.829 µM and the “Trep Concentration 20 min” value [1] was 0.543 µM. For the same substance, the “Trep Concentration 30 min” value [1] was 0.485 µM, the “Trep Concentration 60 min” value [1] was 0.349 µM and the “Treprostinil Concentration 0 min” value [1] was 0.989 µM. The “Treprostinil Concentration 15 min” value [1] was 0.829 µM, the “Treprostinil Concentration 30 min” value [1] was 0.543 µM and the “Treprostinil Concentration 60 min” value [1] was 0.485 µM. For the same substance, the “Treprostinil Concentration 120 min” value [1] was 0.349 µM, the AUC ([1]; human) was 33.6 µmol·min/L and the “AUC Mono (treprostinil formed)” value ([1]; human) was 33.6 µmol·min/L. For the same substance, the CLint ([1]; human, microsomes) was greater than 0.139 mL/min/mg protein, the Half-life ([1]; human, microsomes) was less than 10 min and the “Trep Concentration 0 min” value [2] was 1.07 µM. The “Trep Concentration 10 min” value [2] was 1.07 µM, the “Trep Concentration 20 min” value [2] was 1.04 µM and the “Trep Concentration 30 min” value [2] was 1.05 µM. The “Trep Concentration 60 min” value [2] was 0.897 µM, the “Treprostinil Concentration 0 min” value [2] was 1.07 µM and the “Treprostinil Concentration 15 min” value [2] was 1.07 µM. For the same substance, the “Treprostinil Concentration 30 min” value [2] was 1.04 µM, the “Treprostinil Concentration 60 min” value [2] was 1.05 µM and the “Treprostinil Concentration 120 min” value [2] was 0.897 µM. For the same substance, the “AUC Mono (treprostinil formed)” value ([2]; dog) was 60.9 µmol·min/L, the CLint ([2]; dog, microsomes) was greater than 0.139 mL/min/mg protein and the Half-life ([2]; dog, microsomes) was less than 10 min. For the same substance, the “Trep Concentration (μM) 0 min” value [3] was 0 µM, the “Trep Concentration (μM) 15 min” value [3] was 0.24 µM and the “Trep Concentration (μM) 30 min” value [3] was 0.301 µM. For the same substance, the “Trep Concentration (μM) 60 min” value [3] was 0.298 µM, the “Trep Concentration (μM) 120 min” value [3] was 0.274 µM and the “Treprostinil Concentration 0 min” value [3] was 0 µM. The “Treprostinil Concentration 120 min” value [3] was 0.274 µM, the “CLint, calculated (in parentheses)” value ([3]; hepatocytes) was 0.0697 mL/min/mg protein and the “Half-life, calculated (in parentheses)” value ([3]; hepatocytes) was 6.63 min. For the same substance, the “AUC” value ([3]; rat) was 32 µmol·min/L, the “Mono AUC (treprostinil formed)” value ([3]; rat) was 32.0 µmol·min/L and the CLint ([3]; rat, hepatocytes) was greater than 0.0308 mL/min/mg protein. For the same substance, the Half-life ([3]; rat, hepatocytes) was less than 15 min, the “Trep Concentration 0 min” value [4] was 0 µM and the “Trep Concentration 30 min” value [4] was 0.02 µM. For the same substance, the “Trep Concentration 60 min” value [4] was 0.0556 µM, the “Trep Concentration 120 min” value [4] was 0.147 µM and the “Treprostinil Concentration 0 min” value [4] was 0 µM. The “Treprostinil Concentration 30 min” value [4] was 0.02 µM, the AUC ([4]; human) was 7.512 µmol·min/L and the “Mono AUC (treprostinil formed)” value ([4]; human) was 7.512 µmol·min/L. For the same substance, the “Activity at the IP receptor compared to treprostinil” value [5] was “inactive”.
